# Source: patent publication US11814396B2, “Sesquiterpenoid analogs” (Purdue Research Foundation, priority 2018, dated 2023)
# How the values were obtained:
# [1] = tested on: production of nitric oxide; details: reported; cited from earlier work
# POLE3-GFP = target: T1, POLE3-GFP (Homo sapiens, UniProt Q9NRF9); test: Gel-based determination of kinetic parameters Ki and kinact (Kitz and Wilson method); assay type: binding; details: lysate of 293T cells overexpressing WT POLE3-GFP, 37° C., competition with 30 μM Example 4
# T1 construct: expressed in transfected cells; host or cells: 293T
# T1 sequence (Q9NRF9 1-147): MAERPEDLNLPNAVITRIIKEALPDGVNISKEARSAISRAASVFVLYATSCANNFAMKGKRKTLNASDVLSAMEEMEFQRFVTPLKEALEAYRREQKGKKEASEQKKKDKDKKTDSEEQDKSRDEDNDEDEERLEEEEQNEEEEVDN
# Description: 293T cells in a 3.5 cm Petri dish were transfected with POLE3-WT-GFP-pEXP or […] using PEI-MAX. After 24 hours, lysates were prepared as described above. Proteins (1 mg/mL, 25 μL) were incubated with indicated compounds at indicated concentrations (25× stock in DMSO) for three hours at 37° C. Subsequently, 30 μM Example 4 (25× stock in DMSO) was added for one hour at r.t. Click chemistry, reducing SDS-PAGE and visualization were performed as described above. Proteins were transferred to a PVDF membrane using a Trans-Blot Turbo transfer system (Bio-Rad). Membrane was blocked with 3% BSA in Tris-Buffered Saline with 0.1% Tween 20 (TBST) for one hour at r.t. Mouse monoclonal antibody against GFP (Roche, 1/1000 in 3% BSA in TBST) was added and incubated overnight at 4° C. Membrane was washed three times for five min. with TBST and incubated with anti-mouse Alexa Fluor 647 (Jackson ImmunoResearch Inc., 1/500 in 3% BSA in TBST) for one hour at r.t. Membrane was washed four times for five min. with TBST and visualized with an Azure Biosystems Sapphire Biomolecular Imager.
# WT POLES-GFP was overexpressed in 293T cells as described above and lysate was treated with indicated concentrations of Example 2 (1 μL of 25× stock in DMSO) for 1.5, 2, 2.5, 3, 3.5 or 4 hours at 37° C. […] Images were quantified using ImageJ and the kinetic parameters were determined using GraphPad Prism (V7.02).).
# POLE3 = target: T2, POLE3 (Homo sapiens, UniProt Q9NRF9); test: Global proteomics profiling versus POLE3 knockdown; assay type: cell-based; details: HeLa cells
# T2 construct: endogenous in cells; host or cells: HeLa
# T2 sequence (Q9NRF9 1-147): T1 sequence (Q9NRF9 1-147)
# Description: To understand whether binding of Example 2 to C51 of POLE3 is productive and leads to the loss of function of this protein, POLE3 was knocked down in HeLa cells using siRNA and compared by global proteomics the protein expression profile in these cells versus cells treated with compound Example 2 or DMSO as control. […] Possibly as a compensatory effect, we also observed fourfold upregulation of POLE, another subunit of DNA polymerase ε.
# Knockdown of POLE3 was achieved using RNAiMAx (Invitrogen) and POLE3 siRNA (Dharmacon) via reverse transfection according to the manual of the manufacturer. Briefly, 9 μL of 20 μM siRNA was mixed with 9 μL of RNAiMax reagent in 500 μL OptiMEM and incubated for 20 min. at r.t. […] Samples were analyzed by LC-MS/MS (see below) and the MS data was processed with MaxQuant (see below).
# Peptides were resuspended in water with 0.1% formic acid (FA) and analyzed using EASY-nLC 1200 nano-UHPLC coupled to Q Exactive HF-X Quadrupole-Orbitrap mass spectrometer (Thermo Scientific). […]
# The MS data was analyzed with MaxQuant (V1.6.1.0) and searched against the human proteome (Uniprot) and a common list of contaminants (included in MaxQuant). […] The minimum peptide length was set to 6 amino acids and peptide re-quantification, label-free quantification (MaxLFQ) and “match between runs” were enabled. […]
# HeLa cells = test: Visualization of DNA double strand breaks by γH2AX staining (confocal microscopy); assay type: cell-based
# Description: HeLa cells were seeded (250′000 cells/mL) in a 6-well plate and reverse transfected with scrambled siRNA or POLE3 siRNA using RNAiMAX for two days. Cells were trypsinizned, seeded (150′000 cells/mL) in a 24-well plate containing a coverslip and left overnight to attach and grow. […] Cells were washed one time with PBS and fixed with methanol at −20° C. for 10 min. Cells were washed again two times with PBS and coverslip was transferred to a wet box.
# Blocking was performed with a 5% bovine serum albumin (BSA) solution in PBS for 30 min. Cells were washed one time with PBS 0.1% BSA and rabbit antibody directed against H2AX pSer^139 (Sigma Aldrich H5912, 1/250 in PBS 0.1% BSA) was added and incubated for one hour at r.t. Cells were washed three times with PBS 0.1% BSA and incubated for one hour with anti-rabbit IgG Alexa Fluor 488 (Jackson, 1/200 in PBS 0.1% BSA). Cells were washed three times with PBS 0.1% BSA, one time with PBS, one time with water and then mounted on a slide with ProLong Gold antifade mountant with DAPI (Life Technologies). Cells were visualized with an LSM 700 confocal microscope (Zeiss).
# Induced DNA damage was measured by confocal microscopy using γH2AX staining as marker.
# SHP2 = target: T3, SHP2 (Homo sapiens, UniProt Q06124); test: PTP inhibition study with pNPP as substrate; assay type: biochemical; details: pH 7, 25° C.; for IC50: 15 min
# T3 sequence (Q06124 1-593): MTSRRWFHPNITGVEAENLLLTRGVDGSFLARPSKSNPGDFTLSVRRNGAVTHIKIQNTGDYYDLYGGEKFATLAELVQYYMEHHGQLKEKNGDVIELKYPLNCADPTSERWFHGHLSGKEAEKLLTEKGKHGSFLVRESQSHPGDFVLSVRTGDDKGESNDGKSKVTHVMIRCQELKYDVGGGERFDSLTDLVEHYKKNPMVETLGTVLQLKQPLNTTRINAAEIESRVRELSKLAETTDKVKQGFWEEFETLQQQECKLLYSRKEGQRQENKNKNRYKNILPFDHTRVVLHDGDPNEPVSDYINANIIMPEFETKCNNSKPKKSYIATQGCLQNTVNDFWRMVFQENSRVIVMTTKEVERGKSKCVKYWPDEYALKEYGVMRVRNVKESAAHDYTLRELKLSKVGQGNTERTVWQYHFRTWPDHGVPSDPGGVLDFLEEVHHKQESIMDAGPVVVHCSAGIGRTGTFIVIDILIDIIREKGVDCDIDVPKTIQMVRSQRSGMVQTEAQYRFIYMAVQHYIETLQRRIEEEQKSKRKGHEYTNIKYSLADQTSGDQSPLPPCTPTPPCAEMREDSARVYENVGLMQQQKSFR
# Description: PTP Inhibition Study. Abies sesquiterpenoids and their analogs were evaluated for their ability to inhibit the reaction catalyzed by PTP1B and SHP2 using p-nitrophenyl phosphatae (pNPP) as a substrate at pH 7 and 25° C. […] The reaction was quenched after 3 (PTP1B) or 15 (SHP2) min by the addition of 25 μl of 5N NaOH. The absorbance at 405 nm was detected by a Spectra MAX 384 PLUS microplate spectrophotometer (Molecular Devices). IC50 values were calculated by fitting the absorbance at 405 nm versus inhibitor concentration to the following equation: A1/A0=IC50/(IC50+[I]) wherein A1 is the absorbance at 405 nm of the sample in the presence of inhibitor; A0 is the absorbance at 405 nm in the absence of inhibitor; and [I] is the concentration of the inhibitor.
# MDA-MB-231 lysate = test: Gel-based in vitro JW-RF-001 competition of labeling with Example 4; assay type: binding; details: 30 μM Example 4, MDA-MB-231 lysate, one hour at r.t.
# Description: MDA-MB-231 lysate (2 mg/mL, 25 μL) was treated with indicated concentrations of azide probes (Example 4) (1 μL of 25× stock in DMSO) for one hour at r.t. Click chemistry was initiated by the addition of TAMRA alkyne (Sigma-Aldrich, 30 μM, 25× stock in DMSO), tris(2-carboxyethyl)phosphine hydrochloride (TCEP, Alfa Aesar, 1 mM, fresh 50× stock in water), tris[(1-benzyl-1H-1,2,3-triazol-4-yl)methyl]amine (TBTA, Sigma-Aldrich, 100 μM, 16× stock in DMSO:tBuOH 1:4), and copper(II) sulfate (1 mM, 50× stock in water) to the lysate and incubated in the dark for one hour at r.t. SDS-PAGE reducing loading buffer (4×) was added and proteins were separated using a 10% SDS-PAGE gel. Gels were visualized using an Azure Biosystems Sapphire Biomolecular Imager, then stained using Coomassie. Images were quantified with ImageJ (V1.51).
# MDA-MB-231 lysate (2 mg/mL, 25 μL) was treated with either 3 mM JW-RF-001 (1 μL of 25× stock in DMSO) or DMSO for one hour at r.t. Subsequently, lysate was incubated with 30 μM Example 4 (1 μL, of 25× stock in DMSO) for one hour at r.t. Click chemistry, reducing SDS-PAGE and visualization were performed as described above.
# PTP1B = target: T4, PTP1B (Homo sapiens, UniProt P18031); details: reported by Hu et al., Eur. J. Org. Chem. 2016; cited from earlier work
# T4 sequence (P18031 1-435): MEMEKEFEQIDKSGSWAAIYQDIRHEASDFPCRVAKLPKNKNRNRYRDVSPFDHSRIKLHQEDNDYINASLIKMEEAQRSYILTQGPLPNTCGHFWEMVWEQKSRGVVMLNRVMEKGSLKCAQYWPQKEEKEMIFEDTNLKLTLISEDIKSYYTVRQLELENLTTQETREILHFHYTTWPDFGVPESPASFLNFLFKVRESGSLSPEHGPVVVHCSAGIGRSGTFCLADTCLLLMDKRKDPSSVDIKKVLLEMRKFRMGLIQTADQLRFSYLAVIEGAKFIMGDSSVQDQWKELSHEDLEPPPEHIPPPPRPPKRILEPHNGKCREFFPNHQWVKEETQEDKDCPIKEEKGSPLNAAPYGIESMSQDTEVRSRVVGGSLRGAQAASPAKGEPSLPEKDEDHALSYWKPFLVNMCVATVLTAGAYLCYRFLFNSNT
smiles,measurement,setting,value
"CC1=C[C@@]2(C[C@H](C)[C@H]3CC=C(C)[C@@H](O[C@@H]4O[C@H](CO)[C@@H](O)[C@H](O)[C@H]4O)[C@@H]3O2)OC1=O [Abiespiroside A, abiespiroside A]",inhibitory activity against the production of nitric oxide,[1],potent inhibitory activity
"C=C1C[C@@]2(C[C@H](C)[C@H]3CC=C(C)C(=O)[C@@H]3O2)OC1=O [Example 2, (2R,4S,4aR,8aR)-4,7-dimethyl-4′-methylene-3,3′,4,4a,4′,8a-hexahydro-5′H-spiro[chromene-2,2′-furan]-5′,8(5H)-dione]",kinact,POLE3-GFP,0.0045 s⁻¹
same,Ki,POLE3-GFP; read-out: POLE3-GFP binding constant Ki,56.9 µM
same,functional effect of binding on POLE3 (overlap of protein expression profile with POLE3 KD cells),"POLE3; 30 μM, 6 h treatment",leads to the loss of function of POLE3
same,upregulation of POLE,"POLE3; POLE3 KD and Example 2-treated (30 μM, 6 h)",fourfold
same,"γH2AX signal, combination with etoposide versus etoposide only-treated cells","HeLa cells; 30 μM etoposide combined with 30 μM Example 2, 6 hours",significantly stronger γH2AX signal
same,"γH2AX signal intensity, compound alone","HeLa cells; 30 μM, 6 hours",did not lead to an increase
same,preference for SHP2 over PTP1B,SHP2,10 fold
same,IC50,SHP2,44.9 ± 9.6 µM
"C=C1C[C@@]2(C[C@H](C)[C@H]3CC=C(CO)C(=O)[C@@H]3O2)OC1=O [Example 3, (2R,4S,4aR,8aR)-7-(hydroxymethyl)-4-methyl-4′-methylene-3,3′,4,4a,4′,8a-hexahydro-5′H-spiro[chromene-2,2′-furan]-5′,8(5H)-dione]",preference for SHP2 over PTP1B,SHP2,10 fold
same,IC50,SHP2,33.3 ± 0.9 µM
C=C1CC2(CC(C)C3CC=C(CO)C(O)C3O2)OC1=O (stereo not shown) [Example 3′],preference for SHP2 over PTP1B,SHP2,10 fold
same,IC50,SHP2,3.3 ± 0.1 µM
"C=C1C[C@@]2(C[C@H](C)[C@H]3CC=C(CN=[N+]=[N-])C(=O)[C@@H]3O2)OC1=O [Example 4, (2R,4S,4aR,8aR)-7-(azidomethyl)-4-methyl-4′-methylene-3,3′,4,4a,4′,8a-hexahydro-5′H-spiro[chromene-2,2′-furan]-5′,8(5H)-dione]",binding of the azide probe in lysate,MDA-MB-231 lysate,binded to cysteines
CC1=C[C@@]2(C[C@H](C)[C@H]3CC=C(CO)C(=O)[C@@H]3O2)OC1=O [beshanzuenone C],IC50,PTP1B,59.7 µM
CC1=C[C@@]2(C[C@H](C)[C@H]3CC=C(C)C(=O)[C@@H]3O2)OC1=O [beshanzuenone D],IC50,PTP1B,40.4 µM
